# Source: patent US20050250837A1, “Use of C-Raf inhibitors for the treatment of neurodegenerative diseases” (priority 2002, published 2005)
# Experiments:
# CDK6/cyclinD3 = CDK6/cyclinD3 (Homo sapiens, UniProt Q00534); assay: In vitro kinase assay, purified kinase (Upstate Kinase Profiling); format: biochemical; also: ATP 10 µM
# From the text: (Lackey et al., 2000). […] A number of reports have implicated JNKs in the promotion of neuronal apoptosis both in vivo and in cell culture systems (Coffey et al., 2002). Although all three JNK proteins are expressed in neurons, the phosphorylation of c-jun is believed to be mediated by JNK2 or JNK3 (Bruckner et al., 2001; Bruckner and Estus, 2002; Coffey et al., 2002). […] In apoptotic neurons, JNK activation is mediated primarily by MKK7 (Eilers et al., 1998; Trotter et al., 2002).
# In general, in vitro kinase assays were performed using purified kinase and synthetic substrates under standard conditions using the Kinase Profiling service of Upstate Biotechnology. Briefly, for each assay 5-10 mU of purified kinase was used. […] Kinase activity was quantified by measuring ^33P incorporation by spotting an aliquot on P30 filters, washing in 50 mM phosphoric acid and scintillation counting. The buffer composition for C-Raf, JNK1, JNK2, JNK3, MEK1, MKK6, MKK7 was 50 mM Tris pH7.5, 0.1 mM EGTA, 10 mM Mg acetate and [γ-^33P-ATP]. The peptide substrates used were as follows: For C-Raf, 0.66 mg/ml MBP; for cdks, 0.1 mg/ml histone H1; for JNKs, 3 uM ATF2; for MEK1, 1 uM MAPK2; for MKK6, 1 uM of SAPK2a and for MKK7, 2 uM JNK1α.
# ERK 1/2 = ERK 1/2 phosphorylation in neuronal cultures, Western blot; format: cell-based, rat; conditions: LK plus GW5074, 1 or 3 hours
# From the text: Activation of all three Raf proteins results in activation of MEK and ERK.
# Survival of cerebellar granule neurons can be maintained by BDNF and this effect of BDNF is mediated by the Raf-MEK-ERK signaling pathway (Bonni et al., 1999). The Raf-MEK-ERK pathway is also involved in promoting survival of other neuronal and normeuronal cell types. A potent blocker of the Raf-MEK-ERK pathway is PD98059 (Alessi et al., 1995). In paradigms in which the Raf-MEK-ERK pathway mediates neuronal survival, such as BDNF-treated cerebellar granule neurons, the presence of […] blocks survival (Bonni et al., 1999). […] Lysates from the cultures were subjected to Western blotting using an antibody specific for phospho-ERK.
# (§1) For whole-cell lysates, the culture medium was discarded, the neurons washed twice with ice-cold phosphate-buffered saline (PBS), and lysed in lysis buffer (1% Triton, 20 mM Tris-HCl (pH 7.5), 150 mM NaCl, 1 mM Na2EDTA, 1 mM EGTA, 2.5 mM sodium pyrophosphate, 1 mM beta-glycerophosphate, 1 mM Na3VO4, 1 μg/ml leupeptin and 1× protease inhibitor mixture). Protein concentrations were measured using a Bradford protein assay kit (Bio-Rad), and equivalent amounts of protein were mixed with 6×SDS-PAGE sample buffer. […] After staining with Ponceau S to verify uniformity of protein loads/transfer, the membranes were analyzed for immunoreactivity. […]
# [1] = system: cerebellar granule neurons; assay: Apoptosis of neurons transfected with dominant-negative B-Raf or LacZ in LK plus GW5074; format: cell-based, rat; conditions: LK + 1 uM GW5074, 24 hours
# Procedure: A dominant-negative […] expression vector, pSRa GST B-Raf S728A (full length human B-Raf with Serine to Alanine mutation at position 728) was gifted to us by Dr. Angus M. MacNicol, University of Arkansas for Medical Sciences, Little Rock, Ark. Neuronal cultures were transfected with CMV-LacZ or the dominant-negative B-Raf construct using the calcium phosphate method 5 days after plating of the cultures. […] The proportion of transfected neurons that were apoptotic was quantified 24 hours later.
# Akt = Akt phosphorylation (Ser473) in neuronal cultures, Western blot; format: cell-based, rat
# Procedure: (§2) The best-studied anti-apoptotic pathway in neurons is the PI-3 kinase—Akt signaling pathway (D'Mello et al., 1997; Dudek et al., 1997; Miller et al, 1997a). IGF-1, a potent survival-promotic factor for granule neurons mediates its effect by activating the PI-3 kinase-Akt pathway (Datta et al., 1997; Dudek et al., 1997; D'Mello et al., 1998). […] Switching cerebellar granule neurons from serum-containing HK medium in which they are cultured and allowed to mature, to serum-free LK or HK medium, causes a rapid downregulation of Akt phosphorylation and activity, which can be prevented by IGF-1 (Kumari et al., 2001). […] The same blot was reprobed with an antibody against phospho-Gskβ. Also loaded on the gel were lysates from untreated cultures (maintained in medium containing serum and high K+) and a culture treated for 1 hour with 25 ng/ml IGF-1. […] GSK3βis a proapoptotic molecule that is activated during apoptosis in many neuronal and normeuronal systems. Under survival promoting conditions GSK3β is kept inactivated by phosphorylation, a modification that can be induced by Akt. […] Another proapoptotic molecule that is phosphorylated and inactivated by Akt is the transcription factor, Forkhead (Linseman et al., 2002). […] Switching of neurons to LK medium leads to a rapid downregulation of Akt activity within 2 hours.
# as §1
# Forkhead = Forkhead dephosphorylation in LK; format: cell-based, rat; conditions: data not shown
# Procedure: as §2, with “kinase-Akt” for “kinase—Akt”, “([…]” for “(Linseman”
# CDK6/cyclinD3, sequence (Q00534 whole entry, species assumed): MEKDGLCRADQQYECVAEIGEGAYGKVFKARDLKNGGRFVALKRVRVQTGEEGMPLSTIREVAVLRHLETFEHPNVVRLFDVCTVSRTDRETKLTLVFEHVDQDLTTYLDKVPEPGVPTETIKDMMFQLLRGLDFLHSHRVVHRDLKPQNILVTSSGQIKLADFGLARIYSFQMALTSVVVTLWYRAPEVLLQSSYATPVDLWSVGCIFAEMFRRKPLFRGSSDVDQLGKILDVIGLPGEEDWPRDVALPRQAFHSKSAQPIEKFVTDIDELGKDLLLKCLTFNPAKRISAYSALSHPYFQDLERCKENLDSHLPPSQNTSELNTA
# CDK6/cyclinD3, sequence (P30281 whole entry partner, species assumed): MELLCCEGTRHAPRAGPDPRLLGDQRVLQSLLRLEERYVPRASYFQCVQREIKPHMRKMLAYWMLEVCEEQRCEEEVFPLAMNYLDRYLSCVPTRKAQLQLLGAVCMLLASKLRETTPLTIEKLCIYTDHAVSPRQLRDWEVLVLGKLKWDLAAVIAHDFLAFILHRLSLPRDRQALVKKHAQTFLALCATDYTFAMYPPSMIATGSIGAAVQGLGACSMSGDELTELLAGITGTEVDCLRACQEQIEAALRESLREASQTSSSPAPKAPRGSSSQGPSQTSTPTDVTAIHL
smiles,measurement,setting,value
"O=C1Nc2ccc(I)cc2C1=Cc1cc(Br)c(O)c(Br)c1 [GW5074, 5-Iodo-3-[(3,5-dibromo-4-hydroxyphenyl)methylene]-2-indolinone]",activity at 1 µM,CDK6/cyclinD3,98 ± 1%
same,phosphorylation of ERK 1/2,ERK 1/2,increase in the phosphorylation of ERK 1/2
same,death of neurons,[1]; LacZ control,less than 10%
same,death of infected neurons,"[1]; dominant-negative B-Raf, data not shown",80%
same,Akt phosphorylation after LK treatment,"Akt; LK + 1 uM GW5074, 1 and 3 hours",delays the downregulation of Akt phosphorylation
same,de novo Akt activation after downregulation in LK,Akt; added to cultures already switched to LK,does not lead to Akt activation
same,dephosphorylation of Forkhead in LK,Forkhead,reduces the dephosphorylation
